Experimental data taken from patent publication US11178869B2, “Microbiocidal quinoline (thio)carboxamide derivatives” (priority 2017, dated 2021).
Where two headings read alike, the source gives them in different places.

How the values were obtained:
Format in all cases: cell-based
[1] = tested on: Botryotinia fuckeliana (Botrytis cinerea); experiment: Botryotinia fuckeliana (Botrytis cinerea) / liquid culture (gray mould); conditions: 72 h, 200 ppm, compared to untreated control, growth inhibition photometrically 3-4 days after application, read-out: disease control
[2] = tested on: Fusarium culmorum; experiment: microbe, parasite or virus in culture; conditions: read-out: disease control
[3] = tested on: Glomerella lagenarium (Colletotrichum lagenarium); experiment: Glomerella lagenarium (Colletotrichum lagenarium) / liquid culture (anthracnose); conditions: Colletotrichum orbiculare, read-out: disease control
[4] = tested on: Monographella nivalis (Microdochium nivale); experiment: Monographella nivalis (Microdochium nivale) / liquid culture (foot rot cereals); conditions: 200 ppm, compared to untreated control, growth inhibition photometrically 4-5 days after application, read-out: disease control
[5] = 200 ppm, compared to untreated control, growth inhibition photometrically 3-4 days after application

Measured: inhibition of growth at 200 ppm

COc1ccccc1C#CC(C)(C)NC(=O)c1cnc2c(F)cccc2c1 [Compound F-37, 8-fluoro-N-[3-(2-methoxyphenyl)-1,1-dimethyl-prop-2-ynyl]quinoline-3-carboxamide]
≥ 80%: [1] | [2] | [3]; [5] | [4]

Cc1cccc(C#CC(C)(C)NC(=O)c2cnc3c(F)cccc3c2)c1C [Compound F-26, N-[3-(2,3-dimethylphenyl)-1,1-dimethyl-prop-2-ynyl]-8-fluoro-quinoline-3-carboxamide]
≥ 80%: [1] | [2] | [3]; [5] | [4]

CC(C)(C#Cc1ccccc1C#N)NC(=O)c1cnc2c(F)cccc2c1 [Compound F-41, N-[3-(2-cyanophenyl)-1,1-dimethyl-prop-2-ynyl]-8-fluoro-quinoline-3-carboxamide]
≥ 80%: [1] | [2] | [3]; [5] | [4]

Cc1ccc(C)c(C#CC(C)(C)NC(=O)c2cnc3c(F)cccc3c2)c1 [Compound F-22, N-[3-(2,5-dimethylphenyl)-1,1-dimethyl-prop-2-ynyl]-8-fluoro-quinoline-3-carboxamide]
≥ 80%: [1] | [2] | [3]; [5]

C#CCC(C)(CC(C)C)NC(=O)c1cnc2c(F)cccc2c1 (stereo not shown) [Compound E-2, 8-fluoro-N-(1-isobutyl-1-methyl-but-3-ynyl)quinoline-3-carboxamide]
≥ 80%: [1] | [2] | [3]; [5]

CC#CC(C)(C)NC(=O)c1cnc2c(F)cccc2c1 [Compound F-53, N-(1,1-dimethylbut-2-ynyl)-8-fluoro-quinoline-3-carboxamide]
≥ 80%: [2] | [3]

CC(C)(C#Cc1ccc(C(F)(F)F)cc1)NC(=O)c1cnc2c(F)cccc2c1 [Compound F-42, N-[1,1-dimethyl-3-[4-(trifluoromethyl)phenyl]prop-2-ynyl]-8-fluoro-quinoline-3-carboxamide]
≥ 80%: [1] | [2] | [3]; [5] | [4]

C[C@@](CC#CC1CC1)(CC(F)(F)F)NC(=O)c1cnc2c(F)cccc2c1 [Compound G-1, N-[(1R)-4-cyclopropyl-1-methyl-1-(2,2,2-trifluoroethyl)but-3-ynyl]-8-fluoro-quinoline-3-carboxamide]
≥ 80%: [1] | [2] | [4]

Cc1ccc(C#CC(C)(C)NC(=O)c2cnc3c(F)cccc3c2)cc1C [Compound F-32, N-[3-(3,4-dimethylphenyl)-1,1-dimethyl-prop-2-ynyl]-8-fluoro-quinoline-3-carboxamide]
≥ 80%: [1] | [2] | [3]; [5] | [4]

COc1ccc(C(F)(F)F)cc1C#CC(C)(C)NC(=O)c1cnc2c(F)cccc2c1 [Compound F-43, 8-fluoro-N-[3-[2-methoxy-5-(trifluoromethyl)phenyl]-1,1-dimethyl-prop-2-ynyl]quinoline-3-carboxamide]
≥ 80%: [1] | [2] | [3]; [5]

CC(C)(C#Cc1ccccc1F)NC(=O)c1cnc2c(F)cccc2c1 [Compound F-18, 8-fluoro-N-[3-(2-fluorophenyl)-1,1-dimethyl-prop-2-ynyl]quinoline-3-carboxamide]
≥ 80%: [1] | [2] | [3]; [5] | [4]

Cc1ccc(C#N)cc1C#CC(C)(C)NC(=O)c1cnc2c(F)cccc2c1 [Compound F-19, N-[3-(5-cyano-2-methyl-phenyl)-1,1-dimethyl-prop-2-ynyl]-8-fluoro-quinoline-3-carboxamide]
≥ 80%: [1] | [2] | [3]; [5] | [4]

Cc1cc(C#N)ccc1C#CC(C)(C)NC(=O)c1cnc2c(F)cccc2c1 [Compound F-34, N-[3-(4-cyano-2-methyl-phenyl)-1,1-dimethyl-prop-2-ynyl]-8-fluoro-quinoline-3-carboxamide]
≥ 80%: [1] | [2] | [4]

CC(C)(C#Cc1ccc(F)cc1)NC(=O)c1cnc2c(F)cccc2c1 [Compound F-27, 8-fluoro-N-[3-(4-fluorophenyl)-1,1-dimethyl-prop-2-ynyl]quinoline-3-carboxamide]
≥ 80%: [1] | [2] | [3]; [5] | [4]

Cc1cc(C)cc(C#CC(C)(C)NC(=O)c2cnc3c(F)cccc3c2)c1 [Compound F-30, N-[3-(3,5-dimethylphenyl)-1,1-dimethyl-prop-2-ynyl]-8-fluoro-quinoline-3-carboxamide]
≥ 80%: [1] | [2] | [3]; [5] | [4]

CC(C)(C#Cc1cccc(C#N)c1)NC(=O)c1cnc2c(F)cccc2c1 [Compound F-36, N-[3-(3-cyanophenyl)-1,1-dimethyl-prop-2-ynyl]-8-fluoro-quinoline-3-carboxamide]
≥ 80%: [1] | [2] | [4]

C[C@](CC#CC1CC1)(CC(F)(F)F)NC(=O)c1cnc2c(F)cccc2c1 [Compound G-2, N-[(1S)-4-cyclopropyl-1-methyl-1-(2,2,2-trifluoroethyl)but-3-ynyl]-8-fluoro-quinoline-3-carboxamide]
≥ 80%: [1] | [2]

COc1cc(C#CC(C)(C)NC(=O)c2cnc3c(F)cccc3c2)ccc1Cl [Compound F-38, N-[3-(4-chloro-3-methoxy-phenyl)-1,1-dimethyl-prop-2-ynyl]-8-fluoro-quinoline-3-carboxamide]
≥ 80%: [1] | [2] | [3]; [5] | [4]

CC(C)(C#Cc1ccc(F)c(F)c1)NC(=O)c1cnc2c(F)cccc2c1 [Compound F-20, N-[3-(3,4-difluorophenyl)-1,1-dimethyl-prop-2-ynyl]-8-fluoro-quinoline-3-carboxamide]
≥ 80%: [1] | [2] | [3]; [5] | [4]

Cc1ccc(C#CC(C)(C)NC(=O)c2cnc3c(F)cccc3c2)c(C)c1 [Compound F-33, N-[3-(2,4-dimethylphenyl)-1,1-dimethyl-prop-2-ynyl]-8-fluoro-quinoline-3-carboxamide]
≥ 80%: [1] | [2] | [3]; [5] | [4]
